In ChEMBL document CHEMBL4033673, “Conformational control in structure-based drug design” (Bioorg Med Chem Lett, 2017):

What was measured:
[1] = Displacement of (2S)-N-(2-phenylphenyl)-1-[2-[1-(tritritiomethyl)benzimidazol-2-yl]sulfanylacetyl]pyrrolidine-2-carboxamide from human OX1 receptor Ile408-Val mutant expressed on CHO cell membrane measured after 3 hrs by TopCount method
Orexin receptor type 2 = biological target: T1, Orexin receptor type 2 (Homo sapiens, UniProt O43614); test: Displacement of (2S)-N-(2-pyrrol-1-ylphenyl)-1-[2-[1-(tritritiomethyl)benzimidazol-2-yl]sulfanylacetyl]pyrrolidine-2-carboxamide from recombinant human OX2 receptor expressed in CHO cell membranes after 3 hrs by Topcount method
T1 sequence (O43614 whole entry): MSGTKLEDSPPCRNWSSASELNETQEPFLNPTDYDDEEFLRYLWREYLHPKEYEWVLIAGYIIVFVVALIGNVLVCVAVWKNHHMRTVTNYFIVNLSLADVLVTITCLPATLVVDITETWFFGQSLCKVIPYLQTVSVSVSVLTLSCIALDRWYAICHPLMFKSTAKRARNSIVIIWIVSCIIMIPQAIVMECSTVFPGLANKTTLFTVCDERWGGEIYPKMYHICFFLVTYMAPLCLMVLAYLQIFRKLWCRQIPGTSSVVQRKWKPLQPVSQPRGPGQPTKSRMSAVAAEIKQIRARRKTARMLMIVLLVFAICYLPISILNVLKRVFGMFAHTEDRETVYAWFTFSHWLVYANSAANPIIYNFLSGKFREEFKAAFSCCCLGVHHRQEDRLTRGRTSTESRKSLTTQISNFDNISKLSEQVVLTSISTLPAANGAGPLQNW

[2] = biological target: T2, Mineralocorticoid receptor (Homo sapiens, UniProt P08235); test: Antagonist activity at mineralocorticoid receptor (unknown origin)
T2 sequence (P08235 whole entry): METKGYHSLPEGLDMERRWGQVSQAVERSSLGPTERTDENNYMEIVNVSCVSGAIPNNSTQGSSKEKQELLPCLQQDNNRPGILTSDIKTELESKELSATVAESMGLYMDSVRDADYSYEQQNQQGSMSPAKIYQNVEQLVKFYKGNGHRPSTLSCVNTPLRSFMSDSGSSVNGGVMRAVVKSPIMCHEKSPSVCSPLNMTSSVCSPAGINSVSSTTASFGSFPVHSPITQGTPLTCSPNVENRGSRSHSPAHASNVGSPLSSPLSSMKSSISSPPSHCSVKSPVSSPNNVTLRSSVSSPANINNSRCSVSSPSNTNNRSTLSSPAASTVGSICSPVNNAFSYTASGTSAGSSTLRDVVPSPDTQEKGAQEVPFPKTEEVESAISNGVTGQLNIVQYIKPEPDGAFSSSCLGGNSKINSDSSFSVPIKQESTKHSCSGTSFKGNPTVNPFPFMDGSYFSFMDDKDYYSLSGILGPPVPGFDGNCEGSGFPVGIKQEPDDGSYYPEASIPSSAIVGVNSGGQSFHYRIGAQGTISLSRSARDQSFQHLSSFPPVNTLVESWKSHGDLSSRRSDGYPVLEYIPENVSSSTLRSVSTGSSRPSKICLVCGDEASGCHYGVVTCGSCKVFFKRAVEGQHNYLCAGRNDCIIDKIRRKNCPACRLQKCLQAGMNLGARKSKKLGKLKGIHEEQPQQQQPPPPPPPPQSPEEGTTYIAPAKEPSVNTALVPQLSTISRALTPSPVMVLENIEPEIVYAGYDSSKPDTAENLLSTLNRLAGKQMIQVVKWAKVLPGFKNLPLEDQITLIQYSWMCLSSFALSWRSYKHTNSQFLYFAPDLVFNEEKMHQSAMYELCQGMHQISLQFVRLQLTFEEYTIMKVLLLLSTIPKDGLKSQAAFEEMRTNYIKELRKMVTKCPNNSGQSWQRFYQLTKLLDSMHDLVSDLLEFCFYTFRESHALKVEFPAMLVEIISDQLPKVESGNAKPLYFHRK

Question: Which Ki [1] does the source give for `Cc1ccc(-n2nccn2)c(C(=O)N2CCCC(COc3ccc(F)cn3)C2)c1` (stereo not drawn) here?
Answer: 0.096 µM

Question: For `Cc1ccc(-n2nccn2)c(C(=O)N2CCC[C@@H](COc3ccc(F)cn3)[C@@H]2C)c1` (relative stereo), which Ki (Orexin receptor type 2) is on record?
Answer: 0.0002 µM

Question: With `O=C1COc2ccc(N3CCc4ccc(F)cc4CC3)cc2N1` as the compound, how does the Ki [2] read?
Answer: 0.196 µM
